Laboratory results reported in US9822131B2, “Certain chemical entities, compositions and methods” (Intellikine LLC, priority 2008, dated 2017).

Biological target: T1, PI3K α (Homo sapiens, UniProt P42336)
T1 construct: purchased Upstate
Experiment: PI3K α in vitro kinase inhibition assay
Format: biochemical
Details: not given

T1 sequence (P42336 whole entry): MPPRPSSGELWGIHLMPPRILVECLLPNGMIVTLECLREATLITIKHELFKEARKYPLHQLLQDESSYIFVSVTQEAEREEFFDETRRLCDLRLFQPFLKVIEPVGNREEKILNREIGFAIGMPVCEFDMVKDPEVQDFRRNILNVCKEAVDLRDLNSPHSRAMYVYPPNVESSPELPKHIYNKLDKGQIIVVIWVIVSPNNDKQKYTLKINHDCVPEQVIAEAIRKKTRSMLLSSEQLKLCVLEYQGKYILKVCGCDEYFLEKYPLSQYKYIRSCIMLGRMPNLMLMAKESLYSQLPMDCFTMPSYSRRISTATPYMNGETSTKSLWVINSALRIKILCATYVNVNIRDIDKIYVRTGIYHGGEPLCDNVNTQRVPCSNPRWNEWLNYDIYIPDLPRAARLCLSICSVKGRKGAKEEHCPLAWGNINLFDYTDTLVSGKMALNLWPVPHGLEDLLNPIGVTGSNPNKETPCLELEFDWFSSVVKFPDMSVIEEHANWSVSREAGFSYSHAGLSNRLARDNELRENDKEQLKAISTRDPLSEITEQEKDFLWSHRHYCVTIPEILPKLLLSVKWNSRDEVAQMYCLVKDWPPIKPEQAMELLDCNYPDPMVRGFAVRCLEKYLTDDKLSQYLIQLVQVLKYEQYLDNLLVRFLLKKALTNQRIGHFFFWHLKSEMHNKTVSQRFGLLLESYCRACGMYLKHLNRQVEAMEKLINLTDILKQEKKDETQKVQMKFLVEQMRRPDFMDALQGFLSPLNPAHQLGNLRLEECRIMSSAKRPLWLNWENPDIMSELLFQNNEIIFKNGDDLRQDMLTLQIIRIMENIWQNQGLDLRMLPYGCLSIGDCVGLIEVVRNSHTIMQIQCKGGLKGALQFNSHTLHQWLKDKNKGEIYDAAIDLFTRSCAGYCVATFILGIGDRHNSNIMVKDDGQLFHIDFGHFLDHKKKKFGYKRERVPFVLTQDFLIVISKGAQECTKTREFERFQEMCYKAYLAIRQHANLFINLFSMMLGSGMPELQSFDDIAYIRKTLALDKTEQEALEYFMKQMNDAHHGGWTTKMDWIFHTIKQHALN
T1 sequence (P27986 whole entry partner): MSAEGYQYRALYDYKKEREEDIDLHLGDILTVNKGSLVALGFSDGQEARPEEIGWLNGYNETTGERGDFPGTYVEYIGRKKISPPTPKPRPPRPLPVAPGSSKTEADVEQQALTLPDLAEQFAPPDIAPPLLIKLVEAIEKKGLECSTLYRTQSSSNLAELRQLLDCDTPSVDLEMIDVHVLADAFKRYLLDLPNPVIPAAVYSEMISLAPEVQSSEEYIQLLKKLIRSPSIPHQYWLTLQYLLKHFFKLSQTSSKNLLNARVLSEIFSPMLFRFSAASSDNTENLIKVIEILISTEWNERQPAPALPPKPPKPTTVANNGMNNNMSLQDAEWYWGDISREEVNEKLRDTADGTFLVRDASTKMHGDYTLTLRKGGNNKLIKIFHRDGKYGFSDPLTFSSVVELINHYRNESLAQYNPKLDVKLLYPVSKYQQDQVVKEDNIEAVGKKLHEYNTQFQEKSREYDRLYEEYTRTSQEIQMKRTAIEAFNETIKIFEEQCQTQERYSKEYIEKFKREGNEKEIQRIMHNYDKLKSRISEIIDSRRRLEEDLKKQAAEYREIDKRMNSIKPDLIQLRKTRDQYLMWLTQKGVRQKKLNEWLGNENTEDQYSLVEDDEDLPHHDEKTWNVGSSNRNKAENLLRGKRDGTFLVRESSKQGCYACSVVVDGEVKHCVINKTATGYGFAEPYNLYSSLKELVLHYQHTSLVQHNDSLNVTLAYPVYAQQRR

IC50 [µM] | SMILES
> 10 | Cc1cc2c(=O)n(-c3ccccc3C)c(Cn3nc(Br)c4c(N)ncnc43)nc2s1 [Compound 285]

Biological target: T2, PI3K β (Homo sapiens, UniProt P42338)
T2 construct: purchased Upstate
T2 sequence (P42338 whole entry): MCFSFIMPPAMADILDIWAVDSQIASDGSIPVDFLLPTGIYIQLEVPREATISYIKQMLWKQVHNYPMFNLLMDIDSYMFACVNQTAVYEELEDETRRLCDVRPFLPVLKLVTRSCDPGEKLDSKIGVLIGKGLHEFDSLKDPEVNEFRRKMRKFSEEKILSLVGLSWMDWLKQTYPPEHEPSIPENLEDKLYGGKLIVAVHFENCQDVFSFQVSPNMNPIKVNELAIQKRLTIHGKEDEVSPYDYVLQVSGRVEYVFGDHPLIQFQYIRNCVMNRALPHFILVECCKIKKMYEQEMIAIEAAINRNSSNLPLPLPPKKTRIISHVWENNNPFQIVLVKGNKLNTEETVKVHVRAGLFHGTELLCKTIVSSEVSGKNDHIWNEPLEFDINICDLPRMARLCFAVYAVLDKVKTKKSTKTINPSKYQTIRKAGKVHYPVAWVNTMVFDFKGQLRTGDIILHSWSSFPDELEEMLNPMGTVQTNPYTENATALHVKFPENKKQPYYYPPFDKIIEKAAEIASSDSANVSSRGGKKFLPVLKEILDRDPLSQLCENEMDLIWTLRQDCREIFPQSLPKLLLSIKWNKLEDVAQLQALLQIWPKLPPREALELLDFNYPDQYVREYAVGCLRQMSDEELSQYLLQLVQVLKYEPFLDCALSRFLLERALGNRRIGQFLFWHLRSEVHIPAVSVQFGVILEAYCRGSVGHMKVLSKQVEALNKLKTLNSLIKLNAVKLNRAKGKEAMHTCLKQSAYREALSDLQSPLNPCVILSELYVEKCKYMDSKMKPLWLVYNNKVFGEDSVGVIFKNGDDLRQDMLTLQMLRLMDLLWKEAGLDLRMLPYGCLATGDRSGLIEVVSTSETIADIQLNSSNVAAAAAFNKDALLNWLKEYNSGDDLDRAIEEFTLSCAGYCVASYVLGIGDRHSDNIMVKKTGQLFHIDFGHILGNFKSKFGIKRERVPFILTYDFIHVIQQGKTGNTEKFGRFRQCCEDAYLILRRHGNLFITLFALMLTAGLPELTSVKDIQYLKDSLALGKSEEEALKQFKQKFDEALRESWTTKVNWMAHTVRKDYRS
T2 sequence (P27986 whole entry partner): as the sequence (P27986 whole entry partner) above
Experiment: PI3K β in vitro kinase inhibition assay
Format: biochemical
Details: not given

IC50 [µM] | SMILES
> 10 | Cc1cc2c(=O)n(-c3ccccc3C)c(Cn3nc(Br)c4c(N)ncnc43)nc2s1 [Compound 285]

Biological target: T3, PI3K γ (Homo sapiens, UniProt P48736)
T3 construct: purchased Sigma
T3 sequence (P48736 whole entry): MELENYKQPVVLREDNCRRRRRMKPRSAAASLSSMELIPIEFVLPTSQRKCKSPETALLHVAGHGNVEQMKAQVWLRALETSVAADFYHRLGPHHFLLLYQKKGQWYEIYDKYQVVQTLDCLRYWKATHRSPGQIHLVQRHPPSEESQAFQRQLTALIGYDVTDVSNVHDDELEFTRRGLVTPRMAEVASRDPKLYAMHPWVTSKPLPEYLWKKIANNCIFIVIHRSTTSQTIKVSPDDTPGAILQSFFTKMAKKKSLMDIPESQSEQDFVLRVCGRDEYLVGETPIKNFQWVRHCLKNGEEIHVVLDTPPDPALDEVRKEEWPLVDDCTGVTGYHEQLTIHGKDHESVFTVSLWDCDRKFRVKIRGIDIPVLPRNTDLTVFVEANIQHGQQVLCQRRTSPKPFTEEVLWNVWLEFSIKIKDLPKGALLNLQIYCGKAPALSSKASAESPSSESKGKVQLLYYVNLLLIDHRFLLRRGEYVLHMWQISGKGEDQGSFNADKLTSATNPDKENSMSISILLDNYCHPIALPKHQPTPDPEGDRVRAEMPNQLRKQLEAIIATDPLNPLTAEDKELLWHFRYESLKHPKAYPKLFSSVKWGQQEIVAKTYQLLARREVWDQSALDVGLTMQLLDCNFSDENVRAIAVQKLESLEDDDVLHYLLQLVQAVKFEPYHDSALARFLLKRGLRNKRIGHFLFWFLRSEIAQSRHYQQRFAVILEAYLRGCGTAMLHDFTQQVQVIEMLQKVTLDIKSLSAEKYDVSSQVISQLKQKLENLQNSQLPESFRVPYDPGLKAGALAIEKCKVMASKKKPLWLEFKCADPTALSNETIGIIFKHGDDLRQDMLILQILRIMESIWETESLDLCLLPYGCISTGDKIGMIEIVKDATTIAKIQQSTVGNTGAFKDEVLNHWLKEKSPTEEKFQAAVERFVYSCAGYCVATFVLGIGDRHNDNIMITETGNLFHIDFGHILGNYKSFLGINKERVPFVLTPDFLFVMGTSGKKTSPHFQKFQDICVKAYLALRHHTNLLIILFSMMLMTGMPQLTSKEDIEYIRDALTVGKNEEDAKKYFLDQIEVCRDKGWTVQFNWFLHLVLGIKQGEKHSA
Experiment: PI3K γ in vitro kinase inhibition assay
Format: biochemical
Details: not given

IC50 [µM] | SMILES
> 10 | Cc1cc2c(=O)n(-c3ccccc3C)c(Cn3nc(Br)c4c(N)ncnc43)nc2s1 [Compound 285]
< 10 | Cc1cccnc1-n1c(Cn2nc(I)c3c(N)ncnc32)cc2cccc(C)c2c1=O [Compound 92]

Tested on: Balb/c splenic B cells
Experiment: B cell activation and proliferation assay (Alamar Blue)
Format: cell-based
Details: Mus musculus, read-out: B cell proliferation EC50
Method: The assay is performed in a 96 well microtiter plate using Alamar Blue reduction. Balb/c splenic B cells are purified over a Ficoll-Paque™ PLUS gradient followed by magnetic cell separation using a MACS B cell Isolation Kit (Miletenyi). Cells are plated in 90 ul at 50,000 cells/well in B Cell Media (RPMI+10% FBS+Penn/Strep+50 uM bME+5 mM HEPES). A compound disclosed herein is diluted in B Cell Media and added in a 10 ul volume. Plates are incubated for 30 min at 37 C and 5% CO2 (0.2% DMSO final concentration). A 50 ul B cell stimulation cocktail is then added containing either 10 ug/ml LPS or 5 ug/ml F(ab′)2 Donkey anti-mouse IgM plus 2 ng/ml recombinant mouse IL4 in B Cell Media. […] A volume of 15 uL of Alamar Blue reagent is added to each well and plates are incubated for 5 hours at 37 C and 5% CO2. Alamar Blue fluoresce is read at 560Ex/590Em, and IC50 or EC50 values are calculated using GraphPad Prism 5.

SMILES | EC50 [nM]
Cc1cccc2cc(Cn3nc(I)c4c(N)ncnc43)n(-c3ccccc3O)c(=O)c12 [Compound 79] | < 1000
COc1ccccc1-n1c(Cn2nc(C#C[C@@H](C)O)c3c(N)ncnc32)cc2cccc(C)c2c1=O [Compound 80] | < 1000
Cc1cccc2cc(Cn3nc(-c4cc(O)cc(F)c4)c4c(N)ncnc43)n(-c3ccccc3Cl)c(=O)c12 [Compound 97] | < 100
Cc1cccc2cc(Cn3nc(-c4cccc(O)c4)c4c(N)ncnc43)n(C3CC3)c(=O)c12 [Compound 102] | < 100
Cc1ccccc1-n1c(Cn2nc(-c3cc(O)cc(F)c3)c3c(N)nccc32)cc2cccc(C)c2c1=O [Compound 113] | < 100
CC(=O)Nc1nc2ccc(-c3nn(Cc4cc5cccc(C)c5c(=O)n4C(C)C)c4ncnc(N)c34)cc2s1 [Compound 154] | < 100
Cc1cccnc1-n1c(Cn2nc(Cl)c3c(N)ncnc32)cc2cccc(C)c2c1=O [Compound 18] | < 1000
Cc1cccc2cc(Cn3nc(-c4cc(O)cc(F)c4)c4c(N)ncnc43)n(-c3ccccc3F)c(=O)c12 [Compound 3] | < 100
CC(=O)Nc1nc2ccc(-c3nn(Cc4cc5cccc(Cl)c5c(=O)n4C(C)C)c4ncnc(N)c34)cc2s1 [Compound 157] | < 100
Cc1ccccc1-n1c(Cn2nc(I)c3c(N)ncnc32)cc2cccc(F)c2c1=O [Compound 42] | < 1000
Cc1cccc2cc(Cn3nc(-c4ccc(Cl)c(O)c4)c4c(N)ncnc43)n(C3CCCC3)c(=O)c12 [Compound 71] | < 10000
Cc1cccc2cc(Cn3nc(-c4cccc(O)c4)c4c(N)ncnc43)n(-c3ccccc3C(C)C)c(=O)c12 [Compound 82] | < 100
Cc1cccc2cc(Cn3nc(-c4cc(O)cc(F)c4)c4c(N)ncnc43)n(C(C)C)c(=O)c12 [Compound 66] | < 100
Nc1ncnc2c1c(-c1cc(O)cc(F)c1)nn2Cc1cc2cccc(Cl)c2c(=O)n1C1CC1 [Compound 142] | < 100
Cc1cccc2cc(Cn3nc(-c4ccc(O)cc4)c4c(N)ncnc43)n(-c3ccccc3F)c(=O)c12 [Compound 46] | < 1000
Cc1cccc2cc(Cn3nc(C#C[C@@H](C)O)c4c(N)ncnc43)n(C(C)C)c(=O)c12 [Compound 61] | < 1000
C=Cc1nn(Cc2cc3cccc(C)c3c(=O)n2-c2ccccc2C)c2ncnc(N)c12 [Compound 180] | < 100
COc1ccccc1-n1c(Cn2nc(-c3cccc(O)c3)c3c(N)ncnc32)cc2cccc(C)c2c1=O [Compound 74] | < 100
Cc1cccc2cc(Cn3nc(-c4cccc(O)c4)c4c(N)ncnc43)n(-c3ccccc3)c(=O)c12 [Compound 146] | < 100
COc1cc(-c2nn(Cc3cc4cccc(C)c4c(=O)n3-c3ccccc3F)c3ncnc(N)c23)ccc1Cl [Compound 22] | < 10000
COc1ccc(-c2nn(Cc3cc4cccc(C)c4c(=O)n3-c3ccccc3C)c3ncnc(N)c23)cc1 [Compound 45] | < 1000
COc1ccccc1-n1c(Cn2nc(-c3cc(O)cc(F)c3)c3c(N)ncnc32)cc2cccc(C)c2c1=O [Compound 84] | < 100
Cc1cccc2cc(Cn3nc(-c4cccc(F)c4)c4c(N)ncnc43)n(-c3ccccc3F)c(=O)c12 [Compound 40] | < 10000

SMILES | EC50 [nM]
Cc1ccccc1-n1c(Cn2nc(-c3ccc4nc(N)ccc4c3)c3c(N)ncnc32)cc2cccc(C)c2c1=O [Compound 149] | < 100
Cc1cccc2cc(Cn3nc(I)c4c(N)ncnc43)n(C3CCCCC3)c(=O)c12 [Compound 87] | < 10000
Cc1ccccc1-n1c(Cn2nc(C#C[C@@H](C)O)c3c(N)ncnc32)cc2cccc(C)c2c1=O [Compound 37] | < 100
Nc1ncnc2c1c(-c1cc(O)cc(F)c1)nn2Cc1cc2cccc(F)c2c(=O)n1-c1ccccc1F [Compound 144] | < 100
CC(=O)Nc1nc2ccc(-c3nn(Cc4cc5cccc(C)c5c(=O)n4-c4cccc(F)c4)c4ncnc(N)c34)cc2s1 [Compound 178] | < 100
Cc1cccc2cc(Cn3nc(I)c4c(N)ncnc43)n(-c3ccccc3F)c(=O)c12 [Compound 2] | < 10000
Cc1cccc2cc(Cn3nc(Br)c4c(N)ncnc43)n(-c3ccccc3F)c(=O)c12 [Compound 35] | < 1000
Cc1cccc2cc(Cn3nc(-c4cc(O)cc(F)c4)c4c(N)ncnc43)n(-c3ccccc3C(C)C)c(=O)c12 [Compound 95] | < 100
Cc1cccc2cc(Cn3nc(-c4cccc(O)c4)c4c(N)ncnc43)n(-c3ccccc3F)c(=O)c12 [Compound 10] | < 1000
Cc1ccccc1-n1c(Cn2nc(-c3cnn(CCO)c3)c3c(N)ncnc32)cc2cccc(C)c2c1=O [Compound 163] | < 1000
Cc1cccc2cc(Cn3cnc4c(N)ncnc43)n(-c3ccccc3F)c(=O)c12 [Compound 1] | < 10000
CC(C)n1c(Cn2nc(-c3cccc(O)c3)c3c(N)ncnc32)cc2cccc(F)c2c1=O [Compound 133] | < 1000
Cc1ccccc1-n1c(Cn2nc(-c3ccc(O)cc3)c3c(N)ncnc32)cc2cccc(C)c2c1=O [Compound 36] | < 1000
Cc1cccc2cc(Cn3nc(C#CCO)c4c(N)ncnc43)n(-c3ccccc3F)c(=O)c12 [Compound 8] | < 1000
CNC(=O)Nc1nc2ccc(-c3nn(Cc4cc5cccc(C)c5c(=O)n4-c4ccccc4C)c4ncnc(N)c34)cc2s1 [Compound 148] | < 100
Cc1cccc2cc(Cn3nc(C#C[C@@H](C)O)c4c(N)ncnc43)n(C3CCCCC3)c(=O)c12 [Compound 112] | < 10000
Cc1cccc2cc(Cn3nc(I)c4c(N)ncnc43)n(-c3ccccc3Cl)c(=O)c12 [Compound 76] | < 1000
Cc1cccc2cc(Cn3nc(C#C[C@@H](C)O)c4c(N)ncnc43)n(C3CC3)c(=O)c12 [Compound 100] | < 1000
CCc1ccccc1-n1c(Cn2nc(I)c3c(N)ncnc32)cc2cccc(C)c2c1=O [Compound 77] | < 1000
Cc1ccccc1-n1c(Cn2nc(C#C[C@H](C)O)c3c(N)ncnc32)cc2cccc(C)c2c1=O [Compound 85] | < 1000
Cc1ccccc1-n1c(Cn2nc(-c3ccc(O)c(Cl)c3)c3c(N)ncnc32)cc2cccc(C)c2c1=O [Compound 25] | < 1000
Cc1cccc2cc(Cn3nc(-c4cccc(O)c4)c4c(N)ncnc43)n(C)c(=O)c12 [Compound 124] | < 1000
Cc1cccnc1-n1c(Cn2nc(I)c3c(N)ncnc32)cc2cccc(C)c2c1=O [Compound 15] | < 1000

SMILES | EC50 [nM]
Cc1ccccc1-n1c(Cn2cnc3c(N)ncnc32)cc2cccc(C)c2c1=O [Compound 5] | < 10000
CCc1ccccc1-n1c(Cn2nc(C#C[C@@H](C)O)c3c(N)ncnc32)cc2cccc(C)c2c1=O [Compound 99] | < 100
Cc1ccccc1-n1c(Cn2nc(-c3ccc4ncnc(N)c4c3)c3c(N)ncnc32)cc2cccc(C)c2c1=O [Compound 152] | < 1000
Cc1ccccc1-n1c(Cn2nc(-c3ccc(F)c(O)c3)c3c(N)ncnc32)cc2ccccc2c1=O [Compound 54] | < 100
Cc1cccc2cc(Cn3nc(-c4cn[nH]c4)c4c(N)ncnc43)n(-c3cccc(F)c3)c(=O)c12 [Compound 166] | < 100
CC(=O)Nc1nc2ccc(-c3nn(Cc4cc5cccc(C)c5c(=O)n4-c4ccccc4)c4ncnc(N)c34)cc2s1 [Compound 177] | < 100
Cc1cccnc1-n1c(Cn2nc(C#C[C@@H](C)O)c3c(N)ncnc32)cc2cccc(C)c2c1=O [Compound 69] | < 1000
COc1ccc(-c2nn(Cc3cc4cccc(C)c4c(=O)n3-c3ccccc3C)c3ncnc(N)c23)cc1OC [Compound 44] | < 100
Cc1cccc2cc(Cn3nc(-c4cc(O)cc(F)c4)c4c(N)ncnc43)n(C3CC3)c(=O)c12 [Compound 101] | < 100
Cc1cccc2cc(Cn3nc(-c4cccc(O)c4)c4c(N)ncnc43)n(C3CCC3)c(=O)c12 [Compound 114] | < 1000
Cc1ccccc1-n1c(Cn2nc(-c3ccc(Cl)cc3)c3c(N)ncnc32)cc2cccc(C)c2c1=O [Compound 49] | < 10000
Cc1cccc2cc(Cn3nc(-c4ccc(O)c(F)c4)c4c(N)ncnc43)n(-c3ccccc3F)c(=O)c12 [Compound 29] | < 1000
Cc1cccc2cc(Cn3nc(C#C[C@@H](C)O)c4c(N)ncnc43)n(-c3ccccc3Cl)c(=O)c12 [Compound 98] | < 1000
Cc1ccccc1-n1c(Cn2nc(-c3ccc(O)c(F)c3)c3c(N)ncnc32)cc2cccc(C)c2c1=O [Compound 30] | < 1000
Cc1cccc2cc(Cn3nc(/C=C4/SC(=O)NC4=O)c4c(N)ncnc43)n(-c3ccccc3F)c(=O)c12 [Compound 171] | < 100
Cc1ccccc1-n1c(Cn2nc(I)c3c(N)ncnc32)cc2ccccc2c1=O [Compound 31] | < 1000
CC(C)n1c(Cn2nc(-c3cccc(O)c3)c3c(N)ncnc32)cc2ccccc2c1=O [Compound 135] | < 1000
Cc1cccnc1-n1c(Cn2nc(-c3cc(O)cc(F)c3)c3c(N)ncnc32)cc2cccc(C)c2c1=O [Compound 16] | < 100
CC(C)n1c(Cn2nc(-c3cc(O)cc(F)c3)c3c(N)ncnc32)cc2cccc(F)c2c1=O [Compound 134] | < 100
Cc1ccccc1-n1c(Cn2nc(C#CCO)c3c(N)ncnc32)cc2cccc(C)c2c1=O [Compound 11] | < 1000
Cc1ccccc1-n1c(Cn2nc(-c3cccc(O)c3)c3c(N)ncnc32)cc2ccccc2c1=O [Compound 51] | < 1000

Same assay, conditions: Mus musculus, read-out: B cell proliferation EC50 (nM)

SMILES | EC50 [nM]
Cc1cccc2cc(Cn3nc(C#N)c4c(N)ncnc43)n(-c3ccccc3F)c(=O)c12 [Compound 169] | < 1000

Biological target: T4, PI3K δ (Homo sapiens, UniProt O00329)
T4 construct: purchased Upstate
T4 sequence (O00329 whole entry): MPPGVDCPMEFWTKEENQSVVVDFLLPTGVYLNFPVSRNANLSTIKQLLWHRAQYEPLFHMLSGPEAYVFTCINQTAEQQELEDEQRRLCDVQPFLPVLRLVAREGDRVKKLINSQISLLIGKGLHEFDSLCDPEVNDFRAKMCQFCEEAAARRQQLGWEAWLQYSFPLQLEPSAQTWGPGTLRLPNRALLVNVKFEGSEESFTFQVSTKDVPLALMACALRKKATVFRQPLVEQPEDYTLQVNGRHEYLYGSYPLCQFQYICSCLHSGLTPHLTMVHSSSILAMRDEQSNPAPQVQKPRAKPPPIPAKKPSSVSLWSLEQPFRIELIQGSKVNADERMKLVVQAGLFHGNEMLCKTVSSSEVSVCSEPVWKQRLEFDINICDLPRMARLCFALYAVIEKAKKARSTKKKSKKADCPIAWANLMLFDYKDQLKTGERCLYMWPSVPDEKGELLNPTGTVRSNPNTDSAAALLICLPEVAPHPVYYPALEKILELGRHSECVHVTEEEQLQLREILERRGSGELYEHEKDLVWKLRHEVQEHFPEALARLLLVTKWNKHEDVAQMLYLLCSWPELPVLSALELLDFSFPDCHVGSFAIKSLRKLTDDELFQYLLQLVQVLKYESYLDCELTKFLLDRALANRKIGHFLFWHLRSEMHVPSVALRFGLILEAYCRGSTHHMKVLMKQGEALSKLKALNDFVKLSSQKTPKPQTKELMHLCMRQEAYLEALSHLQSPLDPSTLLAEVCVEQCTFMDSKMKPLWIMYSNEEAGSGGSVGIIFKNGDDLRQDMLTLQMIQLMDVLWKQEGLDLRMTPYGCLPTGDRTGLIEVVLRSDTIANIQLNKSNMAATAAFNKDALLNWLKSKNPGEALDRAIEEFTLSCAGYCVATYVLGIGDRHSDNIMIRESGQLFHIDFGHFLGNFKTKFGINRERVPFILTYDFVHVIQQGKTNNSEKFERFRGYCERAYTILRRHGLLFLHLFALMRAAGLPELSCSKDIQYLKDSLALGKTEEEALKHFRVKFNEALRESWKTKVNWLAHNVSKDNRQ
T4 sequence (P27986 whole entry partner): as the sequence (P27986 whole entry partner) above
Experiment: PI3K δ in vitro kinase inhibition assay
Format: biochemical
Details: not given

IC50 [µM] | SMILES
< 10 | Cc1cc2c(=O)n(-c3ccccc3C)c(Cn3nc(Br)c4c(N)ncnc43)nc2s1 [Compound 285]
< 10 | Cc1cccnc1-n1c(Cn2nc(I)c3c(N)ncnc32)cc2cccc(C)c2c1=O [Compound 92]
